Measurements from US9586969B2, “Microbiocidal heterobicyclic derivatives” (Syngenta Participations AG, priority 2014, dated 2017).

Assays:
Assay type in all cases: cell-based
[1] = test system: Botryotinia fuckeliana (Botrytis cinerea); test: Botryotinia fuckeliana (Botrytis cinerea) / liquid culture (Gray mould); conditions: 72 h, 200 ppm, liquid culture, 24° C., inhibition of growth determined photometrically 3-4 days after application, vs untreated control, read-out: disease control
[2] = test system: Glomerella lagenarium (Colletotrichum lagenarium); test: Glomerella lagenarium (Colletotrichum lagenarium) / liquid culture (Anthracnose); conditions: Colletotrichum orbiculare; 200 ppm; liquid culture, 24° C., inhibition of growth measured photometrically 3-4 days after application; vs untreated control; read-out: disease control
[3] = test system: Monographella nivalis (Microdochium nivale); test: Monographella nivalis (Microdochium nivale) / liquid culture (Foot rot cereals); conditions: 96 h, 200 ppm, liquid culture, 24° C., inhibition of growth determined photometrically 4-5 days after application, vs untreated control, read-out: disease control

| SMILES | inhibition of growth at 200 ppm [1] [%] | inhibition of growth at 200 ppm [2] [%] | inhibition of growth at 200 ppm [3] [%] |
| --- | --- | --- | --- |
| Cc1cccc2c1CC(C)(C)N=C2c1cnn2cccc2c1 [E 4] | ≥ 80 | ≥ 80 | ≥ 80 |
| CC1(C)Cc2ccccc2C(c2cnn3c(F)ccc3c2)=N1 [E 8] | ≥ 80 | ≥ 80 | ≥ 80 |
| CC1(C)Cc2c(F)cccc2C(c2cnn3c(F)cc(F)c3c2)=N1 [E 11] | ≥ 80 | ≥ 80 | – |
| CC1(C)N=C(c2cnn3ccc(Cl)c3c2)c2cccc(F)c2C1(C)C [E 16] | ≥ 80 | ≥ 80 | – |
| CC1(C)Cc2ccccc2C(c2cnn3cccc3c2)N1 (centres unmarked) [E 20] | ≥ 80 | – | – |
| COc1cccc2c1CC(C)(C)N=C2c1cnn2c(F)ccc2c1 [E 23] | ≥ 80 | ≥ 80 | – |
| CC1(C)Cc2c(cccc2-c2ccccc2F)C(c2cnn3c(F)ccc3c2)=N1 [E 28] | ≥ 80 | ≥ 80 | – |
| CC1(C)Cc2c(O)cccc2C(c2cnn3cccc3c2)=N1 [E 34] | ≥ 80 | ≥ 80 | – |
| CC1(C)N=C(c2cnn3c(F)cc(C(F)(F)F)c3c2)c2cccc(F)c2C1(C)C [E 35] | ≥ 80 | ≥ 80 | – |
| CC1(C)N=C(c2cnn3c(C(F)(F)F)cc(C(F)(F)F)c3c2)c2cccc(F)c2C1(C)C [E 36] | ≥ 80 | – | – |
| CC1(C)Cc2c(OC(F)F)cccc2C(c2cnn3cccc3c2)=N1 [E 39] | ≥ 80 | – | – |
| C#Cc1cc(F)n2ncc(C3=NC(C)(C)C(C)(C)c4c(F)cccc43)cc12 [E 40] | ≥ 80 | ≥ 80 | – |
| CC1(C)N=C(c2cnn3c(Br)cc(Br)c3c2)c2cccc(F)c2C1(C)C [E 44] | ≥ 80 | – | – |
| CO/N=C(\C)c1cccc2c1CC(C)(C)N=C2c1cnn2cccc2c1 [E 56] | ≥ 80 | ≥ 80 | – |
| CO/N=C(/C)c1cccc2c1CC(C)(C)N=C2c1cnn2cccc2c1 [E 57] | ≥ 80 | ≥ 80 | – |
| CC1(C)Cc2c(cccc2C2CC2)C(c2cnn3cccc3c2)=N1 [E 59] | ≥ 80 | – | – |
| CC1(C)Cc2ccccc2C(c2cnn3c(Br)ccc3c2)=N1 [E 65] | ≥ 80 | – | ≥ 80 |
| CC1(C)N=C(c2cnn3ccc(Br)c3c2)c2ccccc2C1=O [E 67] | – | ≥ 80 | ≥ 80 |
| CC1(C)N=C(c2cnn3cccc3c2)c2cccc(C#N)c2C1(C)C [E 68] | ≥ 80 | ≥ 80 | – |
| Cc1c(C2=NC(C)(C)C(C)(C)c3c(F)cccc32)cnn2c(C#N)ccc12 [E 83] | ≥ 80 | ≥ 80 | – |
| CC1(C)Cc2c(F)cccc2C(c2cnn3ccnc3c2)=N1 [E 86] | ≥ 80 | – | – |
| CC1(C)N=C(c2cnn3c(C#N)cnc3c2)c2cccc(F)c2C1(F)F [E 88] | ≥ 80 | – | – |
| CC1(C)N=C(c2cnn3ccnc3c2)c2cccc(F)c2C1(F)F [E 89] | ≥ 80 | ≥ 80 | – |
| CC1(C)N=C(c2cnn3c(Br)cnc3c2)c2cccc(F)c2C1(F)F [E 91] | ≥ 80 | – | – |
| Cc1nn2cccc2cc1C1=NC(C)(C)C(C)(C)c2c(F)cccc21 [E 92] | ≥ 80 | ≥ 80 | – |
| Cc1c(C2=NC(C)(C)C(C)(C)c3c(F)cccc32)cnn2cccc12 [E 93] | ≥ 80 | ≥ 80 | – |
| CC1(C)N=C(c2cnn3cccc3c2)c2ccc(Cl)c(F)c2C1(C)C [E 94] | ≥ 80 | ≥ 80 | – |
| Cc1c(C2=NC(C)(C)C(C)(C)c3c(F)cccc32)cnn2c(F)ccc12 [E 95] | ≥ 80 | ≥ 80 | – |
